From patent US7465729B2, “Methods of treatment of menopause and perimenopause using eszopiclone” (Sepracor Inc., priority 2004, dated 2008)

Experiments:
mice = test: Antimuscarinic activity in vivo: oxotremorine induced salivation; details: doses up to 300 mg/kg, p.o.
Description: Eszopiclone was evaluated for antimuscarinic activity in vivo.

conscious dogs = test: Dose escalation safety study, cardiovascular and respiratory parameters
Description: To establish the safety of eszopiclone, a dose escalation study was carried out. Cardiovascular and respiratory parameters were evaluated in conscious dogs following acute intravenous administration of (R)-, (S)- or racemic zopiclone at three doses (3, 5 and 12 mg/kg).

[1] = acute intravenous, 3, 5 and 12 mg/kg

Compound: CN1CCN(C(=O)O[C@@H]2c3nccnc3C(=O)N2c2ccc(Cl)cn2)CC1 [(R)-zopiclone]
- antagonism of oxotremorine induced salivation (mice): neither (R)-, (S)-, nor racemic zopiclone significantly antagonized oxotremorine induced salivation
- cardiotoxicity, as evidenced by the electrocardiogram (ECG) (conscious dogs; [1]): No evidence of cardiotoxicity
- effect on blood pressure (conscious dogs; [1]): no effect
- effect on heart rate (conscious dogs; [1]): no effect
- Blood gases and blood chemistries (pH, pCO2, pO2, hematocrit, and lactate) (conscious dogs; acute intravenous, 3, 5 and 12 mg/kg, all dose groups): remained unaffected
- hemodynamic effect (conscious dogs; intravenous, 12 mg/kg): did not produce a consistent hemodynamic effect
